5 compounds from patent US20060257436A1, “Skin preparation composition for external use” (Shiseido Company, Ltd., priority 2003, published 2006) can be followed below.

SMILES strings stand for the structures. ≈ marks a conversion by molar mass, not a printed value. Read-outs that look alike come from different tables or passages of the source.

The conditions of data set [1]: in vivo.
Experimental: (§4) The 3-hexine-2,5-diol of the present invention was tested for safety.
(§5) The glycerol derivatives of the present invention i.e., 3-phenoxy-1,2-propane diol and 3-benzyloxy-1,2-propane diol, were tested for safety.
(§6) The 2,2-dimethyl-1-phenyl-1,3-propanediol of the present invention was tested for safety.
The conditions of data set [2]: in vivo. This is another data set of the same source.
Experimental: as §4, §5, §6
For data set [3] the following is noted: in vivo. This is another data set of the same source.
Experimental: as §4, §5, §6
In data set [4] the test system is Aspergillus niger (ATCC16404). In words: Minimum inhibiting concentration (MIC), agar plate method. Format: cell-based. The procedure:
(§1) Using the agar plate method, for bacteria, the following various bacteria were inoculated in SCD agar media (made by Eiken) containing 3-hexine-2,5-diol in different concentrations and cultured at 30° C. for 24 hours. […] Further, for fungi, the following various bacteria were inoculated in a potato dextrose agar media containing 3-hexine-2,5-diol in different concentrations and cultured at 25° C. for 48 hours. […] The same was conducted for methyl paraoxybenzoate methyl. The results of the judgment are shown in Table 1 based on the following evaluation criteria:
(§2) Using the agar plate method, for bacteria, the following various bacteria were inoculated in SCD agar media (made by Eiken) containing 3-hexine-2,5-diol in different concentrations and cultured at 30° C. for 24 hours. […] Further, for fungi, the following various bacteria were inoculated in a potato dextrose agar media containing 3-hexine-2,5-diol in different concentrations and cultured at 25° C. for 48 hours. […] The same was conducted for methyl paraoxybenzoate methyl. The results of the judgment are shown in Table III-1 based on the following evaluation criteria:
(§3) Using the agar plate method, for bacteria, the following various bacteria were inoculated in SCD agar media (made by Eiken) containing 3-hexine-2,5-diol in different concentrations and cultured at 30° C. for 24 hours. […] Further, for fungi, the following various bacteria were inoculated in a potato dextrose agar media containing the test compound, in different concentrations and cultured at 25° C. for 48 hours. […] The same was conducted for methyl paraoxybenzoate methyl. The results of the judgment are shown in Table VII-1 based on the following evaluation criteria: […]

For data set [5], the system named is Candida albicans (ATCC10231). The description is as above. It is filed as cell-based. On the procedure:
as §1, §2, §3

The subject of data set [6] is Staphylococcus aureus (ATCC6538). Described as above. Format: cell-based. The procedure:
as §1, §2, §3

For data set [7], the system named is Pseudomonas aeuginosa (ATCC15442). The data set is described as above. It is filed as cell-based. On the procedure:
as §1, §2, §3

The test system of data set [8] is Escherichia coli (ATCC8739). The data set is described as above. It is filed as cell-based. The procedure: as §1, §2, §3
A short description of data set [9]: Primary skin irritation test. As to conditions: in vivo.
Experimental: as §4, §5, §6
A further data set in a line: Skin sensitization test. The settings on record: in vivo.
The nature of data set [10]: Continuous skin irritation test. The settings on record: in vivo.
Experimental: as §4, §5, §6
[11] abbreviates: Aspergillus niger (ATCC16404), read-out: Antimicrobial effect (minimum inhibiting concentration rank).
The mark [12] stands for this setting: Candida albicans (ATCC10231), read-out: Antimicrobial effect (minimum inhibiting concentration rank).
Where [13] appears, read: Staphylococcus aureus (ATCC6538), read-out: Antimicrobial effect (minimum inhibiting concentration rank).
Setting [14] is: Pseudomonas aeuginosa (ATCC15442), read-out: Antimicrobial effect (minimum inhibiting concentration rank).
The mark [15] stands for this setting: Escherichia coli (ATCC8739), read-out: Antimicrobial effect (minimum inhibiting concentration rank).
Where [16] appears, read: Table I-1, potato dextrose agar media, 25° C., 48 hours.
[17] abbreviates: Table I-1, SCD agar media, 30° C., 24 hours.
[18] abbreviates: Table III-1, potato dextrose agar media, 25° C., 48 hours.
Where [19] appears, read: Table III-1, SCD agar media, 30° C., 24 hours.

Experimental for Genetic toxicity test: as §4, §5, §6
Experimental for Skin sensitization test: as §4, §5, §6

As to `CC(C)(CO)C(O)c1ccccc1` (stereo not drawn), the “skin sensitization test result” value in data set [1] is on record as “negative”. The “skin irritability (primary skin irritation test)” value in [2] was “extremely weak”. In addition, in data set [3], the “skin irritability (continuous skin irritation test)” value is on record as “extremely weak”. In addition, the MIC in data set [4] (setting [11]), in [5] (setting [12]), in [6] (setting [13]), in [7] (setting [14]) and in [8] (setting [15]) was < 1000 mg/L in each case. The “toxicity (single administration toxicity test)” value (single administration) is listed as “extremely weak”.

On to `OCC(O)COCc1ccccc1` (stereo not drawn) [3-Benzyloxy-1,2-propane diol, 3-benzyloxy-1,2-propanediol], for which the “skin sensitization test result” value in data set [1] is “negative”. Moreover, in data set [2], the “skin irritability (primary skin irritation test)” value is listed as “extremely weak”. Further, in data set [3], the “skin irritability (continuous skin irritation test)” value is given as “extremely weak”. Moreover, the MIC in data set [4] (Aspergillus niger, ATCC16404, Table III-1, potato dextrose agar media, 25° C., 48 hours, read-out: Antimicrobial effect: minimum inhibiting concentration (MIC)) is < 1000 mg/L; in data set [5] (Candida albicans, ATCC10231, Table III-1, potato dextrose agar media, 25° C., 48 hours, read-out: Antimicrobial effect: minimum inhibiting concentration (MIC)) it was < 1000 mg/L; in [6] (Staphylococcus aureus, ATCC6538, Table III-1, SCD agar media, 30° C., 24 hours, read-out: Antimicrobial effect: minimum inhibiting concentration (MIC)), < 1000 mg/L; in data set [7] (Pseudomonas, ATCC15442, Table III-1, SCD agar media, 30° C., 24 hours, read-out: Antimicrobial effect: minimum inhibiting concentration (MIC)), < 1000 mg/L; in [8] (Escherichia coli, ATCC8739, Table III-1, SCD agar media, 30° C., 24 hours, read-out: Antimicrobial effect: minimum inhibiting concentration (MIC)), < 1000 mg/L. For the same compound, the “toxicity (single administration toxicity test)” value (single administration) is listed as “extremely weak”.

In the case of `OCC(O)COc1ccccc1` (stereo not drawn) [3-Phenoxy-1,2-propane diol, 3-phenoxy-1,2-propanediol], the “skin sensitization test result” value in data set [1] was “negative”. Also, the “skin irritability (primary skin irritation test)” value in data set [2] was “extremely weak”. Moreover, in data set [3], the “skin irritability (continuous skin irritation test)” value was “extremely weak”. In addition, the MIC is < 1000 mg/L in data set [4] (Aspergillus niger, ATCC16404, 48 h, read-out: Antimicrobial effect: minimum inhibiting concentration (MIC)); < 1000 mg/L in data set [5] (Candida albicans, ATCC10231, 48 h, read-out: Antimicrobial effect: minimum inhibiting concentration (MIC)); < 1000 mg/L in [6] (Staphylococcus aureus, ATCC6538, 24 h, read-out: Antimicrobial effect: minimum inhibiting concentration (MIC)); < 1000 mg/L in data set [7] (Pseudomonas, ATCC15442, 24 h, read-out: Antimicrobial effect: minimum inhibiting concentration (MIC)); < 1000 mg/L in data set [8] (Escherichia coli, ATCC8739, 24 h, read-out: Antimicrobial effect: minimum inhibiting concentration (MIC)). Moreover, where the note is “in vivo”, the “toxicity (single administration toxicity test)” value is “extremely weak”.

Take `CC(O)C#CC(C)O` (stereo not drawn) [3-hexine-2,5-diol]: the “genetic toxicity test result” value in “Genetic toxicity test” is listed as “negative”. The “skin irritability (primary skin irritation test)” value in data set [9] is “extremely weak”. Moreover, in the data set “Skin sensitization test”, the “skin sensitization test result” value is “negative”. Also, the “skin irritability (continuous skin irritation test)” value in data set [10] is reported as “extremely weak”. The “Antimicrobial effect: minimum inhibiting concentration (MIC)” value in data set [4] (setting [16]), in [5] (setting [16]), in data set [6] (setting [17]), in [7] (setting [17]) and in data set [8] (setting [17]) was “A (Minimum inhibiting concentration of less than 1000 ppm)” in each case. Moreover, the “toxicity (single administration toxicity test)” value (single administration) is reported as “extremely weak”.

As for `COC(=O)c1ccc(O)cc1` [Methyl paraoxybenzoate, reference compound], the MIC in [4] (Aspergillus niger (ATCC16404), read-out: Antimicrobial effect (minimum inhibiting concentration class)) was 1000 to 5000 mg/L (≈ 6.57 to 32.9 mM); in [4] (setting [11]), 1000 to 5000 mg/L (≈ 6.57 to 32.9 mM); in data set [4] (Aspergillus niger, ATCC16404, Table I-1, potato dextrose agar media, 25° C., 48 hours, read-out: Antimicrobial effect: minimum inhibiting concentration (MIC)), 1000 to 5000 mg/L (≈ 6.57 to 32.9 mM); in data set [5] (Candida albicans (ATCC10231), read-out: Antimicrobial effect (minimum inhibiting concentration class)) it was 1000 to 5000 mg/L (≈ 6.57 to 32.9 mM); in data set [5] (setting [12]) it was 1000 to 5000 mg/L (≈ 6.57 to 32.9 mM); in [5] (Candida albicans, ATCC10231, Table I-1, potato dextrose agar media, 25° C., 48 hours, read-out: Antimicrobial effect: minimum inhibiting concentration (MIC)), 1000 to 5000 mg/L (≈ 6.57 to 32.9 mM). The MIC lay within 1000 to 5000 mg/L (≈ 6.57 to 32.9 mM) in data set [6] (Staphylococcus aureus (ATCC6538), read-out: Antimicrobial effect (minimum inhibiting concentration class)); 1000 to 5000 mg/L (≈ 6.57 to 32.9 mM) in data set [6] (setting [13]); 1000 to 5000 mg/L (≈ 6.57 to 32.9 mM) in [6] (Staphylococcus aureus, ATCC6538, Table I-1, SCD agar media, 30° C., 24 hours, read-out: Antimicrobial effect: minimum inhibiting concentration (MIC)); 5000 to 10000 mg/L (≈ 32.9 to 65.7 mM) in data set [7] (Pseudomonas aeuginosa (ATCC15442), read-out: Antimicrobial effect (minimum inhibiting concentration class)); 5000 to 10000 mg/L (≈ 32.9 to 65.7 mM) in [7] (setting [14]); 5000 to 10000 mg/L (≈ 32.9 to 65.7 mM) in data set [7] (Pseudomonas, ATCC15442, Table I-1, SCD agar media, 30° C., 24 hours, read-out: Antimicrobial effect: minimum inhibiting concentration (MIC)). Besides, the MIC in [8] (Escherichia coli (ATCC8739), read-out: Antimicrobial effect (minimum inhibiting concentration class)) was in the range of 1000 to 5000 mg/L (≈ 6.57 to 32.9 mM); in data set [8] (setting [15]) it was 1000 to 5000 mg/L (≈ 6.57 to 32.9 mM); in [8] (Escherichia coli, ATCC8739, Table I-1, SCD agar media, 30° C., 24 hours, read-out: Antimicrobial effect: minimum inhibiting concentration (MIC)), 1000 to 5000 mg/L (≈ 6.57 to 32.9 mM). The “Antimicrobial effect: minimum inhibiting concentration (MIC)” value in data set [4] (setting [18]) is given as “B (Minimum inhibiting concentration of 1000 ppm to less than 5000 ppm)”; in data set [5] (setting [18]), “B (Minimum inhibiting concentration of 1000 ppm to less than 5000 ppm)”; in data set [6] (setting [19]), “B (Minimum inhibiting concentration of 1000 ppm to less than 5000 ppm)”; in data set [7] (setting [19]), “C (Minimum inhibiting concentration of 5000 ppm to less than 10000 ppm)”; in data set [8] (setting [19]) it was “B (Minimum inhibiting concentration of 1000 ppm to less than 5000 ppm)”.
